Series [1] deals with Staphylococcus aureus. Briefly: Antimicrobial activity against Staphylococcus aureus ATCC6538 assessed as reduction in bacterial growth incubated for 24 hrs by two-fold broth dilution method. It is filed as functional.
The subject of series [2] is Staphylococcus aureus. Briefly: Antimicrobial activity against Staphylococcus aureus N315 assessed as reduction in bacterial growth incubated for 24 hrs by two-fold broth dilution method. It is filed as functional.
Series [3] deals with Streptomyces albus. Briefly: Antimicrobial activity against Streptomyces albus SHBC D11158 assessed as reduction in bacterial growth incubated for 24 hrs by two-fold broth dilution method. Type of series: functional.
Series [4] concerns Staphylococcus hominis. Briefly: Antimicrobial activity against methicillin-resistant Staphylococcus hominis assessed as reduction in bacterial growth incubated for 24 hrs by two-fold broth dilution method. It is filed as functional.
Series [5] has as its system Staphylococcus aureus. Briefly: Bactericidal activity against Staphylococcus aureus ATCC6538 assessed as reduction in survival rate at 5 to 10 times MIC measured within 1 hr by colony counting method. It is filed as functional, organism-based.
A short description of series [6]: Hemolytic activity in rabbit Red blood cell assessed as hemolysis incubated for 1 hr by two-fold microdilution method. Type of series: toxicity, cell-based, Oryctolagus cuniculus, Erythrocyte. The settings on record: red blood cells (erythrocytes).
Series [7] in a line: Selectivity index, ratio of HC50 for rabbit Red blood cell to MIC for Staphylococcus aureus ATCC6538. It is filed as toxicity. Particulars: red blood cells (erythrocytes), read-out: Selectivity Index.
A short description of series [8]: Cytotoxicity against African green monkey Vero E6 cells assessed as reduction in cell viability measured after 24 hrs by CCK-8 method. It is filed as toxicity, cell-based, Chlorocebus sabaeus, Vero C1008.
Series [9] can be described thus: Selectivity index, ratio of IC50 for African green monkey Vero E6 cells to MIC for Staphylococcus aureus ATCC6538. Particulars: read-out: Selectivity Index. Type of series: toxicity.
Series [10] has as its system HeLa. Briefly: Cytotoxicity against human HeLa cells assessed as reduction in cell viability measured after 24 hrs by CCK-8 method. Type of series: functional, cell-based.
A short description of series [11]: Cytotoxicity against human HaCaT cells assessed as reduction in cell viability measured after 24 hrs by CCK-8 method. It is filed as toxicity, cell-based.
Series [12] in a line: Cytotoxicity against HEK293 cells assessed as reduction in cell viability measured after 24 hrs by CCK-8 method. Type of series: toxicity, cell-based. Particulars: human.
For series [13], the system named is A549. Briefly: Cytotoxicity against human A549 cells assessed as reduction in cell viability measured after 24 hrs by CCK-8 method. Type of series: functional, cell-based. The settings on record: A549, 24 h.
In series [14] the test system is Staphylococcus aureus. Briefly: Antimicrobial activity against methicillin resistant Staphylococcus aureus clinical isolate MRS1 assessed as reduction in bacterial growth incubated for 24 hrs by two-fold broth dilution method. It is filed as functional.
Series [15] deals with Staphylococcus aureus. Briefly: Antimicrobial activity against methicillin resistant Staphylococcus aureus clinical isolate MRS23 assessed as reduction in bacterial growth incubated for 24 hrs by two-fold broth dilution method. It is filed as functional.
Series [16] has as its system Staphylococcus aureus. Briefly: Antimicrobial activity against methicillin resistant Staphylococcus aureus clinical isolate MRS70 assessed as reduction in bacterial growth incubated for 24 hrs by two-fold broth dilution method. It is filed as functional.
In series [17] the test system is Staphylococcus aureus. Briefly: Antimicrobial activity against methicillin resistant Staphylococcus aureus clinical isolate MRS207 assessed as reduction in bacterial growth incubated for 24 hrs by two-fold broth dilution method. It is filed as functional.
The test system of series [18] is Staphylococcus aureus. Briefly: Antimicrobial activity against methicillin resistant Staphylococcus aureus clinical isolate MRS108 assessed as reduction in bacterial growth incubated for 24 hrs by two-fold broth dilution method. Type of series: functional.
The test system of series [19] is Staphylococcus aureus. Briefly: Antimicrobial activity against methicillin resistant Staphylococcus aureus clinical isolate MRS152 assessed as reduction in bacterial growth incubated for 24 hrs by two-fold broth dilution method. Type of series: functional.
Series [20] deals with Staphylococcus aureus. Briefly: Antimicrobial activity against methicillin resistant Staphylococcus aureus clinical isolate MRS200 assessed as reduction in bacterial growth incubated for 24 hrs by two-fold broth dilution method. It is filed as functional.
The subject of series [21] is Staphylococcus aureus. Briefly: Antimicrobial activity against methicillin resistant Staphylococcus aureus clinical isolate MRS273 assessed as reduction in bacterial growth incubated for 24 hrs by two-fold broth dilution method. Type of series: functional.
The subject of series [22] is Staphylococcus aureus. Briefly: Antimicrobial activity against methicillin resistant Staphylococcus aureus clinical isolate MRS153 assessed as reduction in bacterial growth incubated for 24 hrs by two-fold broth dilution method. It is filed as functional.
Series [23] has as its system Staphylococcus aureus. Briefly: Antimicrobial activity against methicillin resistant Staphylococcus aureus clinical isolate MRS84 assessed as reduction in bacterial growth incubated for 24 hrs by two-fold broth dilution method. Type of series: functional.
Series [24] has as its system Staphylococcus aureus. Briefly: Antimicrobial activity against methicillin resistant Staphylococcus aureus clinical isolate MRS121 assessed as reduction in bacterial growth incubated for 24 hrs by two-fold broth dilution method. It is filed as functional.
Series [25] has as its system Staphylococcus aureus. Briefly: Antimicrobial activity against methicillin resistant Staphylococcus aureus clinical isolate MRS97 assessed as reduction in bacterial growth incubated for 24 hrs by two-fold broth dilution method. Type of series: functional.
Series [26] relates to Staphylococcus aureus. Briefly: Induction of drug resistance in Staphylococcus aureus ATCC6538 assessed as change in MIC measured after 10 passages. Type of series: functional.
The subject of series [27] is Staphylococcus aureus. Briefly: Induction of drug resistance in Staphylococcus aureus ATCC6538 assessed as fold change in MIC measured after 10 passages. It is filed as functional.
Series [28] deals with Staphylococcus aureus. Briefly: Bactericidal activity against Staphylococcus aureus ATCC6538 at 5 ug/ml measured upto 150 mins. It is filed as functional, organism-based. Particulars: dose 5.0 µg/ml.
Series [29] relates to Staphylococcus aureus. Briefly: Bactericidal activity against norfloxacin-resistant Staphylococcus aureus ATCC6538 at 5 ug/ml measured upto 150 mins. Type of series: functional, organism-based. Particulars: dose 5.0 µg/ml.
For series [30], the system named is Staphylococcus hominis. Briefly: Bactericidal activity against multidrug-resistant Staphylococcus hominis at 5 ug/ml measured upto 150 mins. It is filed as functional, organism-based. The settings on record: dose 5.0 µg/ml.
The test system of series [31] is Staphylococcus aureus. Briefly: Antimicrobial activity against vancomycin-resistant Staphylococcus aureus assessed as reduction in bacterial growth incubated for 24 hrs by two-fold broth dilution method. It is filed as functional.
Series [32] deals with Cell membrane. Briefly: Disruption of cell membrane integrity in Staphylococcus aureus ATCC6538 assessed as increase in fluorescence intensity measured upto 36 mins ethidium bromide uptake assay. It is filed as cell membranes.
For series [33], the system named is Cell membrane. Briefly: Disruption of cell membrane integrity in methicillin resistant Staphylococcus aureus clinical isolate MRS153 assessed as increase in fluorescence intensity measured upto 36 mins ethidium bromide uptake assay. Type of series: cell membranes.
Series [34] concerns Staphylococcus aureus. Briefly: Bactericidal activity against Staphylococcus aureus ATCC6538 assessed as reduction in survival rate at 5 to 10 times MIC measured after 30 to 120 mins by colony counting method relative to control. Type of series: functional. Particulars: time 30-120 min.

Converted amounts (≈) assume the structure as drawn. The source made the active and inactive calls. The calls are words filed in the database; no cut-off is given here.

On to `O=C(CCC(F)(F)F)N(Cc1cc2ccccc2s1)c1cc(-c2cccc(C(F)(F)F)c2)ccc1O`, for which the minimum inhibitory concentration (MIC) turned out to be 1 µg/mL (≈ 1.91 µM) in series [1]; 2 µg/mL (≈ 3.82 µM) in series [2]; 2 µg/mL (≈ 3.82 µM) in series [3]; 2 µg/mL (≈ 3.82 µM) in series [4]; 3 µg/mL (≈ 5.73 µM) in series [14]; 6 µg/mL (≈ 11.5 µM) in series [15]. Moreover, the MIC in [16] was 6 µg/mL (≈ 11.5 µM); in series [17] it was 6 µg/mL (≈ 11.5 µM); in series [18] it was 6 µg/mL (≈ 11.5 µM); in series [19], more than 16 µg/mL; in series [20] it was 6 µg/mL (≈ 11.5 µM); in [21] it was 3 µg/mL (≈ 5.73 µM). Further, the minimal inhibitory concentration (MIC) amounted to 6 µg/mL (≈ 11.5 µM) in [22], 3 µg/mL (≈ 5.73 µM) in series [23], 3 µg/mL (≈ 5.73 µM) in series [24] and 3 µg/mL (≈ 5.73 µM) in series [25]. The outcome in [5] was Active. Besides, the HC50 at 1 h in series [6] is 3280 µg/mL. In addition, the selectivity ratio in [7] is more than 1000; in [9], 20. Moreover, the values for the IC50 at 24 h in [8], in [11] and in series [12] were 20.3 µg/mL (≈ 38.8 µM), 13 µg/mL (≈ 24.8 µM) and 12.2 µg/mL (≈ 23.4 µM), respectively. Besides, the half-inhibitory concentration (IC50) stood at 13.4 µg/mL (≈ 25.5 µM) in [10] and 12.5 µg/mL (≈ 23.9 µM) in series [13]. For the same compound, the outcome in series [26] was inactive.

In the case of `CCn1cc(C(=O)O)c(=O)c2cc(F)c(N3CCNCC3)cc21`, the fold change (FC) in [27] turned out to be 256. Further, the result in series [28] was Active. Further, the result in series [29] was inactive.

For the compound `CN[C@H](CC(C)C)C(=O)N[C@H]1C(=O)N[C@@H](CC(N)=O)C(=O)N[C@H]2C(=O)N[C@H]3C(=O)N[C@H](C(=O)N[C@H](C(=O)O)c4cc(O)cc(O)c4-c4cc3ccc4O)[C@H](O)c3ccc(c(Cl)c3)Oc3cc2cc(c3O[C@@H]2O[C@H](CO)[C@@H](O)[C@H](O)[C@H]2O[C@H]2C[C@](C)(N)[C@H](O)[C@H](C)O2)Oc2ccc(cc2Cl)[C@H]1O` [VANCOMYCIN], the figures for the minimum inhibitory concentration (MIC) in series [3], in series [4] and in [31] were 2 µg/mL (≈ 1.38 µM), 1 µg/mL (≈ 0.69 µM) and not below 8 µg/mL, respectively. Besides, the result in [28], in series [30], in [32] and in [33] was inactive.

`O=C(CCC(F)(F)F)N(Cc1cc2ccccc2s1)c1cc(-c2ccccc2)ccc1O`: the MIC in series [1] is 1 µg/mL (≈ 2.2 µM); in [2], 2 µg/mL (≈ 4.39 µM); in series [3] it was 4 µg/mL (≈ 8.78 µM); in series [4] it was 6 µg/mL (≈ 13.2 µM); in series [14], 3 µg/mL (≈ 6.59 µM); in series [15] it was 3 µg/mL (≈ 6.59 µM). For the same compound, the minimum inhibitory concentration (MIC) worked out at 3 µg/mL (≈ 6.59 µM) in series [16]; 2 µg/mL (≈ 4.39 µM) in series [17]; 2 µg/mL (≈ 4.39 µM) in series [18]; 2 µg/mL (≈ 4.39 µM) in series [19]; 3 µg/mL (≈ 6.59 µM) in series [20]; 3 µg/mL (≈ 6.59 µM) in [21]. Moreover, the MIC came out at 3 µg/mL (≈ 6.59 µM) in [22], 2 µg/mL (≈ 4.39 µM) in series [23], 3 µg/mL (≈ 6.59 µM) in series [24] and 2 µg/mL (≈ 4.39 µM) in [25]. Moreover, in series [34], the Survival was less than 1%. For the same compound, in series [6], the 50% haemolytic concentration (HC50) at 1 h worked out at 1770 µg/mL. Further, the values for the selectivity ratio in series [7] and in series [9] were more than 1000 and 22, respectively. Further, the figures for the concentration for half-maximal inhibition (IC50) at 24 h in series [8], in series [11] and in [12] were 22.9 µg/mL (≈ 50.3 µM), more than 25 µg/mL and 7.8 µg/mL (≈ 17.1 µM), respectively. For the same compound, the results for the half-maximal inhibitory concentration (IC50) in series [10] and in series [13] were more than 25 µg/mL and 10.7 µg/mL (≈ 23.5 µM), respectively. Also, the result in [26] was inactive.
